For 42 compounds, Ki results are on record in patent publication US9193722B2, “Tri-cyclic pyrazolopyridine kinase inhibitors” (Vertex Pharmaceuticals Incorporated, priority 2008, dated 2015).

Each structure is given as a SMILES string.

Holding throughout (assay type): biochemical
Test [1] addresses PKC delta kinase (Homo sapiens, UniProt Q05655). The experiment in a line: PKC delta kinase inhibition, coupled-enzyme (NADH absorbance) assay, Ki. The note with it: 150 μM ATP, 46 nM PKC delta kinase, 30° C.; read-out: Ki PKC delta. The method in brief:
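Enzyme and compound pre-equilibrated 10 min at 30° C before adding ATP to 150 μM final. Buffer: HEPES pH 7.5 (100 mM), 10 mM MgCl2, 25 mM NaCl, 0.1 mM EDTA, 0.01% Brij.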

Test [2] has as its target PKC theta kinase (Homo sapiens, UniProt Q04759). The test can be described thus: PKC theta kinase inhibition, coupled-enzyme (NADH absorbance) assay, Ki. To be noted: 240 μM ATP, 18 nM PKC theta kinase, 30° C. The method in brief: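 Enzyme and compound equilibrated 10 min at 30 °C before reaction in HEPES pH 7.5 buffer with MgCl2, NaCl, EDTA and Brij. Activity tracked as NADH loss at 340 nm through a coupled system. Initial-rate data fitted by non-linear regression to give Ki.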

Test [3] deals with PKC alpha kinase (Homo sapiens, UniProt P17252). The test can be described thus: PKC alpha kinase inhibition, coupled-enzyme (NADH absorbance) assay, Ki. The note with it: 130 μM ATP, 4.5 nM PKC alpha kinase, 30° C. The method in brief:
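Ki derived by non-linear regression of initial rates from a coupled assay tracking NADH absorbance at 340 nm over 15 min at 30 °C. ATP was 130 μM final after a 10 min compound–enzyme preincubation in HEPES pH 7.5 buffer with MgCl2, CaCl2, NaCl, EDTA and Brij.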

PKC delta kinase, sequence (Q05655 whole entry): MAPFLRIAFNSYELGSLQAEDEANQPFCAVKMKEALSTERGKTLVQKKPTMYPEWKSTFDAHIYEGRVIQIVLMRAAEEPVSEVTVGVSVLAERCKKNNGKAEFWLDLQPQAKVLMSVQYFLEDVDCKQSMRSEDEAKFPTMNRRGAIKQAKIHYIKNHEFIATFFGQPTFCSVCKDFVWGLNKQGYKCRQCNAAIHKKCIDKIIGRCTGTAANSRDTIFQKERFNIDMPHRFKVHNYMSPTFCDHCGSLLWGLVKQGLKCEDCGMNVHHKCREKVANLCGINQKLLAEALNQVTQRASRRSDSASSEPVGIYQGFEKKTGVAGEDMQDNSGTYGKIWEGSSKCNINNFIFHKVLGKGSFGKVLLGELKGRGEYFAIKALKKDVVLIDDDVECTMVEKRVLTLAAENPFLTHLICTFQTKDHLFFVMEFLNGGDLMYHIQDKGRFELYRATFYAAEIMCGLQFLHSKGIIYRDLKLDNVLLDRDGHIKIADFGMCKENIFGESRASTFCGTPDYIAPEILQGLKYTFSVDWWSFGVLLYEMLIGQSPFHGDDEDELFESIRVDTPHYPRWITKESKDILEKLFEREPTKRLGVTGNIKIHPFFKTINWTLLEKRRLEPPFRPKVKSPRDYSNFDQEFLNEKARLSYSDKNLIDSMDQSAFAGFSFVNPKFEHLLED
PKC theta kinase, sequence (Q04759 whole entry): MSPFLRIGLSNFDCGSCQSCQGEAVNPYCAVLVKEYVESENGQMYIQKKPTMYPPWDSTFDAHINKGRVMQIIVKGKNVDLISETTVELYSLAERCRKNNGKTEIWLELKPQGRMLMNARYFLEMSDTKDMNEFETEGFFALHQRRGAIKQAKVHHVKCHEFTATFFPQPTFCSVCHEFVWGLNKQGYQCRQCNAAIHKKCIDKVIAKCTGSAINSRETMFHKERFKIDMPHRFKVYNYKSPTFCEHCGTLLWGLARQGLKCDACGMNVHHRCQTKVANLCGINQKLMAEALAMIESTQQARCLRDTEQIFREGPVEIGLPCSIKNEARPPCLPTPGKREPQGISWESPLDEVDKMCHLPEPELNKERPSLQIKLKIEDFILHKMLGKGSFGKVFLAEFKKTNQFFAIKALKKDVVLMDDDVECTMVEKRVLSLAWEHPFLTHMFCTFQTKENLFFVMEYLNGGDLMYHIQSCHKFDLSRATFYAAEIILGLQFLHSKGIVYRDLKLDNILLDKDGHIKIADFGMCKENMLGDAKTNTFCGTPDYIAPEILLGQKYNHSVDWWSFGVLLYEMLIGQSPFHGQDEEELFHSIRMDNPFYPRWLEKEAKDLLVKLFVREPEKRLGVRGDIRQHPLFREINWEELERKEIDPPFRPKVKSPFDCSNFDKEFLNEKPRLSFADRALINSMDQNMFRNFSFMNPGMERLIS

`CC(C)C(C)(O)C1CN(c2nc(-c3n[nH]c4ncccc34)ccc2F)CCN1` (stereo not drawn) [Compound 376]: the Ki is under 500 nM in test [1], under 50 nM in test [2] and over 1250 nM in test [3].

On to `CCC(N)(CC)C1CCCN(c2ccc(F)c(-c3n[nH]c4ncccc34)n2)C1` (stereo not drawn) [Compound 377], for which the Ki was under 2800 nM in test [1], under 500 nM in test [2] and over 1250 nM in test [3].

`CCC(C)(C)C(N)C1CCCN(c2ccc(F)c(-c3n[nH]c4ncccc34)n2)C1` (stereo not drawn) [Compound 378]: the Ki in test [1] was under 500 nM; in test [2], under 50 nM; in test [3] it was under 2800 nM.

In the case of `CCC(C)(C)C(N)C1CCCN(c2ccc(F)c(-c3n[nH]c4ncccc34)n2)C1` (stereo not drawn) [Compound 379], the values for the Ki in test [1], in test [2] and in test [3] were over 1250 nM, under 500 nM and over 1250 nM, respectively.

For the compound `CC1(C)CC1(O)C1CN(c2ccc(F)c(-c3n[nH]c4ncccc34)n2)CCN1` (stereo not drawn) [Compound 380], the Ki in test [1] was over 1250 nM; in test [2] it was under 50 nM; in test [3] it was over 1250 nM.

With `CC1(C)CC1(O)C1CN(c2ccc(F)c(-c3n[nH]c4ncccc34)n2)CCN1` (stereo not drawn) [Compound 381], the Ki was under 500 nM in test [1], under 1 nM in test [2] and under 500 nM in test [3].

On to `CC1(C)CC1(O)C1CN(c2ccc(F)c(-c3n[nH]c4ncccc34)n2)CCN1` (stereo not drawn) [Compound 382], for which the Ki in test [1] is over 1250 nM; in test [2] it was under 500 nM; in test [3] it was over 1250 nM.

For `CC1(C)CC1(O)C1CN(c2ccc(F)c(-c3n[nH]c4ncccc34)n2)CCN1` (stereo not drawn) [Compound 383], the Ki in test [1] is over 1250 nM; in test [2], under 500 nM; in test [3], over 1250 nM.

In the case of `CO[C@H]1CN(c2ccc(C(F)(F)F)c(-c3n[nH]c4ncccc34)n2)CC[C@H]1N` [Compound 384], the values for the Ki in test [1], in test [2] and in test [3] were over 1250 nM, under 500 nM and over 1250 nM, respectively.

In the case of `CC(C)CC1(C)CN(c2ccc(F)c(-c3n[nH]c4ncccc34)n2)CCC1N` (stereo not drawn) [Compound 385], the Ki is under 500 nM in test [1], under 50 nM in test [2] and under 500 nM in test [3].

Consider `CC(C)CC1CN(c2ccc(F)c(-c3n[nH]c4ncccc34)n2)CCC1CN` (stereo not drawn) [Compound 386], for which the Ki in test [1] was under 500 nM; in test [2], under 50 nM; in test [3] it was under 2800 nM.

Take `NCC1CN(c2ccc(F)c(-c3n[nH]c4ncccc34)n2)C1` [Compound 387]: the Ki in test [1] is over 1250 nM; in test [2], under 500 nM; in test [3], over 1250 nM.

As to `CO[C@H]1CN(c2ccc(F)c(-c3n[nH]c4ncccc34)n2)CC[C@H]1N` [Compound 389], the Ki in test [1] is under 2800 nM; in test [2] it was under 500 nM; in test [3], under 2800 nM.

In the case of `CC(C)(C(N)C1CCCN(c2ccc(F)c(-c3n[nH]c4ncccc34)n2)C1)C(F)(F)F` (stereo not drawn) [Compound 390], the Ki in test [1] was over 1250 nM; in test [2], under 50 nM; in test [3], over 1250 nM.

`CCC(CC)C(N)C1CCCN(c2ccc(F)c(-c3n[nH]c4ncccc34)n2)C1` (stereo not drawn) [Compound 391]: the Ki was under 2800 nM in test [1], under 50 nM in test [2] and over 1250 nM in test [3].

For the compound `CC(C)(C(N)C1CCCN(c2ccc(F)c(-c3n[nH]c4ncccc34)n2)C1)C(F)(F)F` (stereo not drawn) [Compound 393], the figures for the Ki in test [1], in test [2] and in test [3] were under 50 nM, under 1 nM and under 2800 nM, respectively.

For `CC(C)(C(N)C1CCCN(c2ccc(F)c(-c3n[nH]c4ncccc34)n2)C1)C(F)(F)F` (stereo not drawn) [Compound 394], the Ki in test [1] is over 1250 nM; in test [2] it was under 500 nM; in test [3] it was over 1250 nM.

As to `NCC1CN(c2ccc(F)c(-c3n[nH]c4ncccc34)n2)CCO1` (stereo not drawn) [Compound 395], the Ki in test [1] was over 1250 nM; in test [2], under 500 nM; in test [3] it was over 1250 nM.

Turning to `CC(C)CC1(C)C=CCN(c2ccc(C(F)(F)F)c(-c3n[nH]c4ncccc34)n2)C1` (stereo not drawn) [Compound 396], the Ki is over 1250 nM in test [1], over 700 nM in test [2] and over 1250 nM in test [3].

Take `CC(C)CC1(CN)CN(c2ccc(C(F)(F)F)c(-c3n[nH]c4ncccc34)n2)CCO1` (stereo not drawn) [Compound 397]: the figures for the Ki in test [1], in test [2] and in test [3] were under 500 nM, under 500 nM and under 2800 nM, respectively.

Turning to `NC(=O)C1(N)CCN(c2ccc(C(F)(F)F)c(-c3n[nH]c4ncccc34)n2)CC1` [Compound 398], the figures for the Ki in test [1], in test [2] and in test [3] were over 1250 nM, over 700 nM and over 1250 nM, respectively.

With `NC(=O)C1(N)CCN(c2ccc(F)c(-c3n[nH]c4ncccc34)n2)CC1` [Compound 399], the Ki in test [1] is over 1250 nM; in test [2], over 700 nM; in test [3], over 1250 nM.

`CC(C)CC1(O)CN(c2ccc(F)c(-c3n[nH]c4ncccc34)n2)CCC1C#N` (stereo not drawn) [Compound 400]: the Ki in test [1] was under 2800 nM; in test [2], under 50 nM; in test [3], over 1250 nM.

Turning to `CC(C)CC1(O)CN(c2ccc(C(F)(F)F)c(-c3n[nH]c4ncccc34)n2)CCC1C#N` (stereo not drawn) [Compound 401], the figures for the Ki in test [1], in test [2] and in test [3] were under 2800 nM, under 50 nM and over 1250 nM, respectively.

In the case of `COC(=O)C1(CC(C)C)CN(c2ccc(C(F)(F)F)c(-c3n[nH]c4ncccc34)n2)CCC1N` (stereo not drawn) [Compound 402], the Ki was under 500 nM in test [1], under 500 nM in test [2] and over 1250 nM in test [3].

As to `CCC1(CN)CN(c2ccc(C(F)(F)F)c(-c3n[nH]c4ncccc34)n2)CCO1` (stereo not drawn) [Compound 403], the Ki is under 500 nM in test [1], under 50 nM in test [2] and over 1250 nM in test [3].

Turning to `CCCC1(CN)CN(c2ccc(C(F)(F)F)c(-c3n[nH]c4ncccc34)n2)CCO1` (stereo not drawn) [Compound 404], the Ki in test [1] was under 500 nM; in test [2], under 500 nM; in test [3], under 2800 nM.

`CC(C)CC1(C(F)(F)F)CN(c2ccc(C(F)(F)F)c(-c3n[nH]c4ncccc34)n2)CCC1N` (stereo not drawn) [Compound 405]: the Ki is under 500 nM in test [1], under 500 nM in test [2] and over 1250 nM in test [3].

`CCC1CN(c2ccc(C(F)(F)F)c(-c3n[nH]c4ncccc34)n2)CCC1C#N` (stereo not drawn) [Compound 406]: the Ki in test [1] is over 1250 nM; in test [2] it was under 500 nM; in test [3], over 1250 nM.

On to `CCC1CN(c2ccc(F)c(-c3n[nH]c4ncccc34)n2)CCC1C#N` (stereo not drawn) [Compound 407], for which the results for the Ki in test [1], in test [2] and in test [3] were under 2800 nM, under 50 nM and over 1250 nM, respectively.

Turning to `CNC(C1CCCN(c2ccc(F)c(-c3n[nH]c4ncccc34)n2)C1)C(C)(C)C` (stereo not drawn) [Compound 408], the Ki is over 1250 nM in test [1], under 500 nM in test [2] and over 1250 nM in test [3].

Turning to `CC(C)CC1(CO)CN(c2ccc(C(F)(F)F)c(-c3n[nH]c4ncccc34)n2)CCC1N` (stereo not drawn) [Compound 410], the Ki in test [1] is under 50 nM; in test [2], under 50 nM; in test [3], under 500 nM.

Take `CC(C)CC1(CO)CN(c2ccc(C(F)(F)F)c(-c3n[nH]c4ncccc34)n2)CCC1N` (stereo not drawn) [Compound 411]: the Ki is under 2800 nM in test [1], under 500 nM in test [2] and under 2800 nM in test [3].

With `NCC1CCN(c2cc(C(F)(F)F)cc(-c3n[nH]c4ncccc34)n2)CC1` [Compound 412], the values for the Ki in test [1], in test [2] and in test [3] were over 1250 nM, under 500 nM and over 1250 nM, respectively.

In the case of `CC(C)CC1(CN)CN(c2ccc(C(F)(F)F)c(-c3n[nH]c4ncccc34)n2)C1` [Compound 413], the values for the Ki in test [1], in test [2] and in test [3] were over 1250 nM, over 700 nM and over 1250 nM, respectively.

Turning to `CC(=O)N1CCN(c2ccc(F)c(-c3n[nH]c4ncccc34)n2)CC1C(C)(O)C(C)C` (stereo not drawn) [Compound 414], the Ki in test [1] was over 1250 nM; in test [2] it was over 700 nM; in test [3], over 1250 nM.

Consider `CCOC(=O)N1CCN(c2ccc(F)c(-c3n[nH]c4ncccc34)n2)CC1C(C)(O)C(C)C` (stereo not drawn) [Compound 418], for which the Ki in test [1] is over 1250 nM; in test [2] it was over 700 nM; in test [3] it was over 1250 nM.

With `CC(C)CC1CN(c2cc(C(F)(F)F)cc(-c3n[nH]c4ncccc34)n2)CCC1N` (stereo not drawn) [Compound 419], the Ki in test [1] was over 1250 nM; in test [2], under 500 nM; in test [3], over 1250 nM.

As to `NC[C@@H]1CCN(c2cc(C(F)(F)F)cc(-c3n[nH]c4ncccc34)n2)C1` [Compound 420], the Ki in test [1] was over 1250 nM; in test [2] it was under 2800 nM; in test [3], over 1250 nM.

For `CC(C)(C)C(N)C1CCN(c2ccc(F)c(-c3n[nH]c4ncccc34)n2)C1` (stereo not drawn) [Compound 421], the Ki was under 500 nM in test [1], under 50 nM in test [2] and over 1250 nM in test [3].

For `OC1CCCN(c2ccc(C(F)(F)F)c(-c3n[nH]c4ncccc34)n2)C1` (stereo not drawn) [Compound 423], the results for the Ki in test [1], in test [2] and in test [3] were over 1250 nM, over 700 nM and over 1250 nM, respectively.

`CC(C)C(C)(O)C1CN(c2ccc(F)c(-c3n[nH]c4ncccc34)n2)CCN1C(=O)OC(C)(C)C` (stereo not drawn) [Compound 424]: the Ki was over 1250 nM in test [1], over 700 nM in test [2] and over 1250 nM in test [3].
